This note sets out measurements from ChEMBL document CHEMBL1955819, “Ketoolivosyl-tetracenomycin C: a new ketosugar bearing tetracenomycin reveals new insight into the substrate flexibility of glycosyltransferase ElmGT” (2012).

The source made the active and inactive calls. No cut-off for these calls is given here.

For one test, the system named is Streptomyces prasinus. Nature of the test: Antimicrobial activity against Streptomyces prasinus at 1 mg/mL by disc diffusion assay. Conditions: read-out: DIZ. Type of test: functional. (A growth-free zone around the sample is the usual read-out of agar diffusion tests.)
The test system of a further test is Escherichia coli. Kind of test: Antimicrobial activity against Escherichia coli XL1-blue at 1 mg/mL by disc diffusion assay. Type of test: functional, organism-based.
The subject of a further test is Rhizomucor miehei. Kind of test: Antimicrobial activity against Mucor miehei at 1 mg/mL by disc diffusion assay. Type of test: functional, organism-based.

Consider `COC(=O)c1c(O[C@@H]2O[C@@H](C)[C@H](OC)[C@@H](OC)[C@H]2OC)cc2cc3c(c(O)c2c1C)C(=O)[C@]1(OC)C(=O)C=C(OC)[C@@H](O)[C@]1(O)C3=O` [ELLORAMYCIN], for which the zone of inhibition at 1000 µg/mL with Streptomyces prasinus was found to be 25 mm.
With `COC(=O)c1c(O[C@H]2C[C@H](O)C(=O)[C@H](C)O2)cc2cc3c(c(O)c2c1C)C(=O)[C@]1(O)C(=O)C=C(OC)[C@@H](O)[C@]1(O)C3=O`, the outcome in the test on Escherichia coli and in the test on Rhizomucor miehei was inactive. In the test with Streptomyces prasinus, the zone of inhibition at 1000 µg/mL was 12 mm.
